In paper PMC2173257 (The Journal of Cell Biology, 2002):

What was measured:
[1] = molecular target: Kes1p^LH201/202FN (Saccharomyces cerevisiae, UniProt P35844, L201F/H202N); assay: competitive displacement of photo-probe from purified mutant protein; assay type: binding
[2] = molecular target: Kes1p (Saccharomyces cerevisiae, UniProt P35844); assay: competitive displacement of [3H]BZDC-PI; assay type: binding

- IC50 [1]: 6.1 µM
- IC50 [2]: 1.9 µM
Substance: PI(4,5)P2
